# Literature values in US9687482B2, “Stable pharmaceutical composition comprising solifenacin, and method for preparing the same” (CJ HEALTHCARE CORPORATION, priority 2014, dated 2017).
# Molecular target: muscarinic M3 receptors (Homo sapiens, UniProt P20309)
# Details: reported
# muscarinic M3 receptors, sequence (P20309 whole entry): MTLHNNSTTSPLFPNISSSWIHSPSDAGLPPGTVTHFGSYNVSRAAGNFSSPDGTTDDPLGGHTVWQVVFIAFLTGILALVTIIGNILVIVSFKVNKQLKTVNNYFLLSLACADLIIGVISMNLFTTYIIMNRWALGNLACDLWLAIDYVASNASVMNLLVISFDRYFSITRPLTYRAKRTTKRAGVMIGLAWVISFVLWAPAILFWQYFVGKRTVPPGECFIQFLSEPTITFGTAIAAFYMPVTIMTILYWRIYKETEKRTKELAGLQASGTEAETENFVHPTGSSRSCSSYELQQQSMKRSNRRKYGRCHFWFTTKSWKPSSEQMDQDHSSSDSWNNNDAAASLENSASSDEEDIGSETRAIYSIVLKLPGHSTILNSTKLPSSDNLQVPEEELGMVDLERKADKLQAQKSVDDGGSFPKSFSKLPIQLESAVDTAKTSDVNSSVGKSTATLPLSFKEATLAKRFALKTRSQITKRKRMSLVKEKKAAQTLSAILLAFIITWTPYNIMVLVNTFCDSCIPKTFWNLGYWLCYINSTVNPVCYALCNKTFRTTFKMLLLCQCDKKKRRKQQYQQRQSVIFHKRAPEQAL
structure (smiles),measurement,value
"O=C(O[C@H]1CN2CCC1CC2)N1CCc2ccccc2[C@@H]1c1ccccc1 [Solifenacin, (1R,3′R)-3′-quinuclidinyl-1-phenyl-1,2,3,4-tetrahydro-2-isoquinoline carboxylate]",antagonistic action against muscarinic M3 receptors,excellent selective antagonistic action
